Biological target: T1, Jarid1B (Homo sapiens, UniProt Q9UGL1)
T1 construct: purchased BPS Bioscience or custom made by MolecularThroughput 50121
T1 sequence (Q9UGL1 2-751): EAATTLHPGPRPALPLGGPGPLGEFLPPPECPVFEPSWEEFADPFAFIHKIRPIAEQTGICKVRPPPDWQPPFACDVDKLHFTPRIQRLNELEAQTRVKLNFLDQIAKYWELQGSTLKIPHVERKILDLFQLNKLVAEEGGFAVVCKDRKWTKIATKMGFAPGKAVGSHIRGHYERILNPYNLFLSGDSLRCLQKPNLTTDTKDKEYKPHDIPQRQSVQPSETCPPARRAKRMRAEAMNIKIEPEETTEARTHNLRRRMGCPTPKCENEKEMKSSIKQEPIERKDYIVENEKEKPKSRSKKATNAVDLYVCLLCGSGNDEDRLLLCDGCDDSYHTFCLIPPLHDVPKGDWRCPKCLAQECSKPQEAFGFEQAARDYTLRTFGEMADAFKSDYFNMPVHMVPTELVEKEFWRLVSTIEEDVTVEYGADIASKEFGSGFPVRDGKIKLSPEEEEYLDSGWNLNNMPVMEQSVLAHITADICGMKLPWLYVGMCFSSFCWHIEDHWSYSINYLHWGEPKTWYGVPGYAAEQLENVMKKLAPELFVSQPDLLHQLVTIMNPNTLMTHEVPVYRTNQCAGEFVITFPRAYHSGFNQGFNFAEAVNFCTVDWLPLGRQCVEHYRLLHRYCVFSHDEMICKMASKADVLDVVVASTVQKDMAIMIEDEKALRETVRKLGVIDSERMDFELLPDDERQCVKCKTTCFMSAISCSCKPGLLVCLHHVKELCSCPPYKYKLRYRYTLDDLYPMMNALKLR
Experiment: Jarid1B in vitro enzyme inhibition assay (TR-FRET)
Assay type: biochemical
Summary of the method: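 Jarid1B (AA 2-751, baculovirus-expressed) at 0.8 nM with 300 nM biotin-H3K4me3 peptide and 2 μM α-ketoglutarate in HEPES pH 7.3 with ascorbate and Fe(II), 30 min at room temperature. Stopped with EDTA; H3K4me1-2 product detected by TR-FRET (665/615 ratio) and IC50 fitted from 11-point dilutions.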

| Structure (SMILES) | IC50 [nM] |
| --- | --- |
| Oc1nc(Oc2cnn([C@H]3CCN(c4ccc(F)cc4)C3)c2)nc2cnccc12 [Example 146, 2-({1-[(3S)-1-(4-fluorophenyl)pyrrolidin-3-yl]-1H-pyrazol-4-yl}oxy)pyrido[3,4-d]pyrimidin-4-ol] | ≤ 100 |
| O=C(C1CC1)N1CC[C@@H](n2cc(Oc3nc(O)c4ccncc4n3)cn2)C1 [Example 131, 2-({1-[(3R)-1-cyclopropanecarbonylpyrrolidin-3-yl]-1H-pyrazol-4-yl}oxy)pyrido[3,4-d]pyrimidin-4-ol] | ≤ 100 |
| Oc1nc(Oc2cnn([C@H]3CCN(c4ccccc4)C3)c2)nc2cnccc12 [Example 145, 2-({1-[(3S)-1-phenylpyrrolidin-3-yl]-1H-pyrazol-4-yl}oxy)pyrido[3,4-d]pyrimidin-4-ol] | ≤ 100 |
| Oc1nc(OCc2cccc(Cl)c2Cl)nc2cnccc12 [Example 173, 2-[(2,3-dichlorophenyl)methoxy]pyrido[3,4-d]pyrimidin-4-ol] | 1000 to 10000 |
| Oc1nc(Oc2cnn([C@@H]3CCN(c4ccc(F)cc4)C3)c2)nc2cnccc12 [Example 134, 2-({1-[(3R)-1-(4-fluorophenyl)pyrrolidin-3-yl]-1H-pyrazol-4-yl}oxy)pyrido[3,4-d]pyrimidin-4-ol] | ≤ 100 |
| O=S(=O)(c1ccccc1)N1CCC[C@@H](n2cc(Oc3nc(O)c4ccncc4n3)cn2)C1 [Example 152, 2-({1-[(3R)-1-(benzenesulfonyl)piperidin-3-yl]-1H-pyrazol-4-yl}oxy)pyrido[3,4-d]pyrimidin-4-ol] | ≤ 100 |
| Oc1nc(OCCCC(F)(F)F)nc2cnccc12 [Example 20, 2-(4,4,4-trifluorobutoxy)pyrido[3,4-d]pyrimidin-4-ol] | ≤ 100 |
| Oc1nc(OCc2ccccc2Cl)nc2cnccc12 [Example 171, 2-[(2-chlorophenyl)methoxy]pyrido[3,4-d]pyrimidin-4-ol] | 100 to 1000 |
| Oc1nc(OCCc2ccccc2)nc2cnccc12 [Example 18, 2-(2-phenylethoxy)pyrido[3,4-d]pyrimidin-4-ol] | ≤ 100 |
| CCS(=O)(=O)N1CCC[C@@H](n2cc(Oc3nc(O)c4ccncc4n3)cn2)C1 [Example 150, 2-({1-[(3R)-1-(ethanesulfonyl)piperidin-3-yl]-1H-pyrazol-4-yl}oxy)pyrido[3,4-d]pyrimidin-4-ol] | ≤ 100 |
| C[C@H](c1ccccc1)n1cc(Oc2nc(O)c3ccncc3n2)cn1 [Example 117, 2-({1-[(1R)-1-phenylethyl]-1H-pyrazol-4-yl}oxy)pyrido[3,4-d]pyrimidin-4-ol] | ≤ 100 |
| CCS(=O)(=O)N1CCC[C@H](n2cc(Oc3nc(O)c4ccncc4n3)cn2)C1 [Example 161, 2-({1-[(3S)-1-(ethanesulfonyl)piperidin-3-yl]-1H-pyrazol-4-yl}oxy)pyrido[3,4-d]pyrimidin-4-ol] | ≤ 100 |
| O=S(=O)(C1CC1)N1CC[C@H](n2cc(Oc3nc(O)c4ccncc4n3)cn2)C1 [Example 137, 2-({1-[(3S)-1-(cyclopropanesulfonyl)pyrrolidin-3-yl]-1H-pyrazol-4-yl}oxy)pyrido[3,4-d]pyrimidin-4-ol] | ≤ 100 |
| CN(C)CCCOc1nc(O)c2ccncc2n1 [Example 21, 2-[3-(dimethylamino)propoxy]pyrido[3,4-d]pyrimidin-4-ol] | 1000 to 10000 |
| Oc1nc(OCCc2ccc(Cl)c(Cl)c2)nc2cnccc12 [Example 175, 2-[2-(3,4-dichlorophenyl)ethoxy]pyrido[3,4-d]pyrimidin-4-ol] | 1000 to 10000 |
| CC(C)COc1nc(O)c2ccncc2n1 [Example 14, 2-(2-methylpropoxy)pyrido[3,4-d]pyrimidin-4-ol] | 100 to 1000 |
| C[C@@H](c1ccccc1)n1cc(Oc2nc(O)c3ccncc3n2)cn1 [Example 118, 2-({1-[(1S)-1-phenylethyl]-1H-pyrazol-4-yl}oxypyrido) [3,4-d]pyrimidin-4-ol] | ≤ 100 |
| CC(COc1nc(O)c2ccncc2n1)c1ccccc1 (stereo not drawn) [Example 17, 2-(2-phenylpropoxy)pyrido[3,4-d]pyrimidin-4-ol] | 100 to 1000 |
| O=C(c1ccccc1)N1CC[C@@H](n2cc(Oc3nc(O)c4ccncc4n3)cn2)C1 [Example 132, 2-({1-[(3R)-1-benzoylpyrrolidin-3-yl]-1H-pyrazol-4-yl}oxy)pyrido[3,4-d]pyrimidin-4-ol] | ≤ 100 |
| Oc1nc(OCCC(F)(F)F)nc2cnccc12 [Example 13, 2-(3,3,3-trifluoropropoxy)pyrido[3,4-d]pyrimidin-4-ol] | 100 to 1000 |

| Structure (SMILES) | IC50 [nM] |
| --- | --- |
| O=S(=O)(c1ccccc1)N1CC[C@H](n2cc(Oc3nc(O)c4ccncc4n3)cn2)C1 [Example 138, 2-({1-[(3S)-1-(benzenesulfonyl)pyrrolidin-3-yl]-1H-pyrazol-4-yl}oxy)pyrido[3,4-d]pyrimidin-4-ol] | ≤ 100 |
| Oc1nc(Oc2cnn([C@@H]3CCNC3)c2)nc2cnccc12 [Example 125, 2-({1-[(3R)-pyrrolidin-3-yl]-1H-pyrazol-4-yl}oxy)pyrido[3,4-d]pyrimidin-4-ol] | ≤ 100 |
| O=C(C1CC1)N1CCC[C@@H](n2cc(Oc3nc(O)c4ccncc4n3)cn2)C1 [Example 156, 2-({1-[(3R)-1-cyclopropanecarbonylpiperidin-3-yl]-1H-pyrazol-4-yl}oxy)pyrido[3,4-d]pyrimidin-4-ol] | ≤ 100 |
| CCS(=O)(=O)N1CC[C@H](n2cc(Oc3nc(O)c4ccncc4n3)cn2)C1 [Example 136, 2-({1-[(3S)-1-(ethanesulfonyl)pyrrolidin-3-yl]-1H-pyrazol-4-yl}oxy)pyrido[3,4-d]pyrimidin-4-ol] | ≤ 100 |
| CCC(C)COc1nc(O)c2ccncc2n1 (stereo not drawn) [Example 16, 2-(2-methylbutoxy)pyrido[3,4-d]pyrimidin-4-ol] | 100 to 1000 |
| Cn1cnc(-c2nccc3c(O)nc(OCc4ccc(Cl)cc4)nc23)c1 [Example 112, 2-[(4-chlorophenyl)methoxy]-8-(1-methyl-1H-imidazol-4-yl)pyrido[3,4-d]pyrimidin-4-ol] | ≤ 100 |
| Oc1nc(OC(c2ccccc2)C(F)(F)F)nc2cnccc12 (stereo not drawn) [Example 176, 2-(2,2,2-trifluoro-1-phenylethoxy)pyrido[3,4-d]pyrimidin-4-ol] | 100 to 1000 |
| O=C(C1CC1)N1CC[C@H](n2cc(Oc3nc(O)c4ccncc4n3)cn2)C1 [Example 141, 2-({1-[(3S)-1-cyclopropanecarbonylpyrrolidin-3-yl]-1H-pyrazol-4-yl}oxy)pyrido[3,4-d]pyrimidin-4-ol] | ≤ 100 |
| CC(C)CCOc1nc(O)c2ccncc2n1 [Example 15, 2-(3-methylbutoxy)pyrido[3,4-d]pyrimidin-4-ol] | ≤ 100 |
| N#CCC(=O)N1CC[C@@H](n2cc(Oc3nc(O)c4ccncc4n3)cn2)C1 [Example 130, 3-[(3R)-3-[4-({4-hydroxypyrido[3,4-d]pyrimidin-2-yl}oxy)-1H-pyrazol-1-yl]pyrrolidin-1-yl]-3-oxopropanenitrile] | ≤ 100 |
| Oc1nc(Oc2cnn(CCN3CCOCC3)c2)nc2cnccc12 [Example 124, 2-({1-[2-(morpholin-4-yl)ethyl]-1H-pyrazol-4-yl}oxy)pyrido[3,4-d]pyrimidin-4-ol] | ≤ 100 |
| COCCOc1nc(O)c2ccncc2n1 [Example 22, 2-(2-methoxyethoxy)pyrido[3,4-d]pyrimidin-4-ol] | 100 to 1000 |
| Oc1nc(OCc2ccc(C(F)(F)F)cc2)nc2cnccc12 [Example 170, 2-{[4-(trifluoromethyl)phenyl]methoxy}pyrido[3,4-d]pyrimidin-4-ol] | 1000 to 10000 |
| Cn1cnc(-c2nccc3c(O)nc(OCc4ccc(C(F)(F)F)cc4)nc23)c1 [Example 111, 8-(1-methyl-1H-imidazol-4-yl)-2-{[4-(trifluoromethyl)phenyl]methoxy}pyrido[3,4-d]pyrimidin-4-ol] | 100 to 1000 |
| CC(=O)N1CCC[C@H](n2cc(Oc3nc(O)c4ccncc4n3)cn2)C1 [Example 164, 1-[(3S)-3-[4-({4-hydroxypyrido[3,4-d]pyrimidin-2-yl}oxy)-1H-pyrazol-1-yl]piperidin-1-yl]ethan-1-one] | ≤ 100 |
| Oc1nc(Oc2cnn([C@H]3CCN(c4ccc(Cl)cc4)C3)c2)nc2cnccc12 [Example 148, 2-({1-[(3S)-1-(4-chlorophenyl)pyrrolidin-3-yl]-1H-pyrazol-4-yl}oxy)pyrido[3,4-d]pyrimidin-4-ol] | ≤ 100 |
| Oc1nc(Oc2cnn(C(c3ccccc3)C3CC3)c2)nc2cnccc12 (stereo not drawn) [Example 116, 2-({1-[cyclopropyl(phenyl)methyl]-1H-pyrazol-4-yl}oxy)pyrido[3,4-d]pyrimidin-4-ol] | ≤ 100 |
| O=S(=O)(C1CC1)N1CCC[C@H](n2cc(Oc3nc(O)c4ccncc4n3)cn2)C1 [Example 162, 2-({1-[(3S)-1-(cyclopropanesulfonyl)piperidin-3-yl]-1H-pyrazol-4-yl}oxy)pyrido[3,4-d]pyrimidin-4-ol] | ≤ 100 |
| Oc1nc(OCCc2ccc(Cl)cc2)nc2cnccc12 [Example 174, 2-[2-(4-chlorophenyl)ethoxy]pyrido[3,4-d]pyrimidin-4-ol] | ≤ 100 |

Source: patent publication US10526327B2, “Histone demethylase inhibitors” (CELGENE QUANTICEL RESEARCH, INC., priority 2013, dated 2020)
